For one assay, the system named is HCC1954 REPX. The experiment in a line: MTT growth inhibition assay, paclitaxel-resistant subtype. The class given is cell-based, human. On the procedure:
To develop the paclitaxel resistance subtype, cells were continually exposed to stepwise increases in the concentration of paclitaxel over 16 to 18 weeks. Briefly, HCC1954 cells were seeded at a density of ˜5×10^5/mL in a T75 cell culture flask with 10 mL complete growth medium. After 4-6 hours of incubation, relatively low concentrations of paclitaxel (ranging from 1 to 150 nM) were added into the medium. Cells were left in paclitaxel for three days or until a stable cell re-population formed. Regular medium replenishment was performed throughout this period. The paclitaxel concentration was then increased by 0.5 to 2-fold. This stepwise dose escalation continued for 16 to 18 weeks until the paclitaxel concentration reached at least ten times the starting concentration. […]
Drug sensitivity was determined by the 3-(4, 5-dimethylthiazol-2-yl)-2, 5-diphenyl tetrazolium bromide (MTT) colorimetric assay. First, cells were counted with a hemocytometer, seeded in a 96-well plate, and cultured for 24 h. […] The optical density (OD; absorbance at 540 nm) was measured using a plate reader (Tecan). […]
To generate a resistance cell model in vitro (HCC1954 REPX), the HCC1954 cell line was treated with increasing concentrations of paclitaxel, and cell viability was re-evaluated after 18 weeks of treatment.

The subject of a further assay is MD-MB-231. Description: MTT growth inhibition assay, paclitaxel drug sensitivity. The settings on record: Homo sapiens, MD-MB-231 breast cancer cells, 72 h treatment, read-out: paclitaxel inhibitor concentration 50 (IC50). In kind it is cell-based. On the procedure: (§1) The human breast cancer cell lines, including HCC1954, BT474, MCF7, MDA-MB-231, HCC1937 cells, and normal breast cell, Hs371T, were purchased from American Type Culture Collection (ATCC) and cultured at 37° C. in 5% CO2. HCC1954, BT474, and HCC1937 cells were grown in RPMI-1640 (Hyclone), and MCF7, MDA-MB-231, and Hs371T cells were cultured in DMEM (Cyclone). All complete media contained 10% fetal bovine serum (FBS, ThermoFisher Scientific), 100 U/mL penicillin, and 100 μg/mL streptomycin (Millipore Sigma).
(§2) Drug sensitivity was determined by the 3-(4, 5-dimethylthiazol-2-yl)-2, 5-diphenyl tetrazolium bromide (MTT) colorimetric assay. First, cells were counted with a hemocytometer, seeded in a 96-well plate, and cultured for 24 h. After that, cells were treated with paclitaxel for 72 h: paclitaxel (1.00E-06-10 µM). Subsequently, MTT dye (Sigma-Aldrich; Merck KGaA) at a final concentration of 0.5 mg/ml was added for 3 hours. This was followed by replacing the medium and dissolving the formazan crystals with DMSO. The optical density (OD; absorbance at 540 nm) was measured using a plate reader (Tecan). Data (mean±SD of at least three independent experiments performed in triplets) are presented as the relative proliferation as a function of time after seeding.
(§3) MTT assay was performed for each cell line to determine the paclitaxel inhibitor concentration 50 (IC50) in the six breast cancer cell lines included.
(In general: Formazan colour is commonly taken as a measure of viable cells.)

The next assay has as its system HCC1954. The assay is described as above. In kind it is cell-based. The settings on record: Homo sapiens, HCC1954 breast cancer cells, 72 h treatment, read-out: paclitaxel inhibitor concentration 50 (IC50). On the procedure: as §1, §2, §3
The next assay concerns HCC1937. The description is as above. The class given is cell-based. The note with it: Homo sapiens, HCC1937 breast cancer cells, 72 h treatment, read-out: paclitaxel inhibitor concentration 50 (IC50). How it is done:
as §1, §2, §3

The test system of the next assay is BT474. Described as above. The class given is cell-based. The settings on record: Homo sapiens, BT-474, BT474 breast cancer cells, 72 h treatment, read-out: paclitaxel inhibitor concentration 50 (IC50). How it is done: as §1, §2, §3

As for `CC(=O)O[C@H]1C(=O)[C@@]2(C)[C@H]([C@H](OC(=O)c3ccccc3)[C@]3(O)C[C@H](OC(=O)[C@H](O)[C@@H](NC(=O)c4ccccc4)c4ccccc4)C(C)=C1C3(C)C)[C@]1(OC(C)=O)CO[C@@H]1C[C@@H]2O` [paclitaxel, Paclitaxel], the IC50 in the assay with HCC1954 REPX (Homo sapiens, HCC1954 REPX paclitaxel-resistant subtype, after 18 weeks of paclitaxel treatment, MTT) worked out at 1800 nM; with MD-MB-231, 600 nM; with HCC1954, 14 nM; with HCC1937, 9.9 µM; in the assay on BT474 it was 100 nM. The increase in paclitaxel-resistance in the assay with HCC1954 REPX (IC50 in HCC1954 REPX compared to parental HCC1954) is given as 128.57 fold.

For the origin of these results see patent US20240240256A1, “MOLECULAR ANALYSIS OF EXTRACELLULAR VESICLES (EVs) FOR THE PREDICTION AND MONITORING OF DRUG RESISTANCE IN CANCER” (The General Hospital Corporation, priority 2023, published 2024).
